Data taken from patent US7504401B2, “Anti-cancer agents and uses thereof” (Locus Pharmaceuticals, Inc., priority 2003, dated 2009).

Columns and labels:
Assay type in all cases: cell-based
[1] = tested on: Jurkat T-cell leukemic cells; test: Cell cycle assay, flow cytometry with propidium iodide, Example 126; settings: 24 h, 0.5% serum, Table 2
Procedure: (§1) MCF-7 breast cancer cells and Jurkat T-cell leukemic cells were grown (and maintained) in EMEM and RPMI media, respectively, containing 10% fetal calf serum.
Test agents were added a concentration of 0.1 μM. Twenty-fours after test agent addition, cells were analyzed for cell cycle status as described below.
(§2) Cell cycle status was analyzed by flow cytometry. Briefly, cells were collected and washed with FACs buffer (Pharmingen) and resuspended and fixed in 1 mL of 80% ethanol for 1 hr. Cells were washed with FACs buffer and resuspended in propidium iodide(PI)/RNase staining buffer (Pharmingen). PI is a fluorescent dye that labels nucleic acids such as DNA. The fluorescence within a cell (in the presence of PI) is proportional to the amount of DNA within a cell. The cell content of DNA is an indices of status in the cell cycle. […] Cells in the S phase have DNA content that lies between these extremes.
(§3) For testing of cell cycle effects of test agents the percentage of cells within the G1 and G2/M phase were measured.

[2] = tested on: MCF-7 breast cancer cells; test: as above; settings: MCF-7 cells, 24 h, 0.5% FCS, Table 2
Procedure: as §1
Cells were allowed to adhere for 24 hrs. After adherence, cell culture media was changed to that containing 0.5% FCS. Thirty minutes post-media change, test compounds were added at a concentration of 1 μM. Twenty-fours after test agent addition, cells were analyzed for cell cycle status as described below.
as §2, §3

Hela cells = test: Cell viability assay (WST-1 colorimetric mitochondrial reduction), Example 125; settings: Homo sapiens, 0.5% fetal calf serum, 48-72 hrs
Procedure: Jurkat and Hela cells were cultured in RPMI and EMEM media, respectively, containing 0.5% fetal calf serum. Cells were plated in a volume of 100 μL in a 96 well format. Test compounds were included in the culture media at concentrations ranging from 1 nM to 10 μM for a period of 48-72 hrs. […] Briefly, 10 μL of WST-1 reagent was included in the culture well for a period of 1 to 4 hrs. The WST-1 reaction was read on a multiwell spectrophotometer as the difference in the absorbance between 450 nm and 600 nm (baseline). Absorbance was proportional to the number of living cells in the culture well. Concentration response curves and IC50 values were calculated using GraphPAD Prism graphing and curve fitting program.

| Structure (SMILES) | Jurkat G2/M Block 0.1 μM [1] | MCF-7 G2/M Block 1 μM [2] | IC50 (Hela cells) [µM] |
| --- | --- | --- | --- |
| [O-][n+]1cccc(Nc2cc(O)cc(-c3cccc4[nH]ccc34)c2)c1 [3-(1H-Indol-4-yl)-5-(1-oxy-pyridin-3-ylamino)-phenol] | Y (Y indicates a 50% or greater increase in the number of cells in the G2/M phase, as compared to control) | Y (Y indicates a 50% or greater increase in the number of cells in the G2/M phase, as compared to control) | – |
| CC(=O)N(c1cccnc1)c1cccc(-c2cccc3[nH]ccc23)c1 [N-[3-(1H-Indol-4-yl)-phenyl]-N-pyridin-3-yl-acetamide] | – | – | 1 to 30 |
